Reference: patent US20090118332A1, “Therapeutic Agents - 551” (AstraZeneca AB, priority 2006, published 2009)

Target: T1, human Fatty Acid Synthase (Homo sapiens, UniProt P49327)
T1 construct: made in house
Assay: Human FAS enzyme assay (decrease in NADPH fluorescence)
Format: biochemical
Conditions: for inhibition at 100 µM: % inhibition at a concentration of 100 μmolar; for IC50, inhibition of human Fatty Acid Synthase: FAS enzyme assay, IC50 from fitted sigmoid curves
Procedure, shortened: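 In-house human FAS was preincubated with compound and NADPH for 15 min at room temperature in 0.1 M Tris pH 7.5 with EDTA, glutathione and BSA. Malonyl CoA and acetyl CoA (500 μM and 150 μM in the added mix) were then added for 60 min. IC50 came from time-zero-subtracted NADPH fluorescence (340/460 nm).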

T1 sequence (P49327 whole entry): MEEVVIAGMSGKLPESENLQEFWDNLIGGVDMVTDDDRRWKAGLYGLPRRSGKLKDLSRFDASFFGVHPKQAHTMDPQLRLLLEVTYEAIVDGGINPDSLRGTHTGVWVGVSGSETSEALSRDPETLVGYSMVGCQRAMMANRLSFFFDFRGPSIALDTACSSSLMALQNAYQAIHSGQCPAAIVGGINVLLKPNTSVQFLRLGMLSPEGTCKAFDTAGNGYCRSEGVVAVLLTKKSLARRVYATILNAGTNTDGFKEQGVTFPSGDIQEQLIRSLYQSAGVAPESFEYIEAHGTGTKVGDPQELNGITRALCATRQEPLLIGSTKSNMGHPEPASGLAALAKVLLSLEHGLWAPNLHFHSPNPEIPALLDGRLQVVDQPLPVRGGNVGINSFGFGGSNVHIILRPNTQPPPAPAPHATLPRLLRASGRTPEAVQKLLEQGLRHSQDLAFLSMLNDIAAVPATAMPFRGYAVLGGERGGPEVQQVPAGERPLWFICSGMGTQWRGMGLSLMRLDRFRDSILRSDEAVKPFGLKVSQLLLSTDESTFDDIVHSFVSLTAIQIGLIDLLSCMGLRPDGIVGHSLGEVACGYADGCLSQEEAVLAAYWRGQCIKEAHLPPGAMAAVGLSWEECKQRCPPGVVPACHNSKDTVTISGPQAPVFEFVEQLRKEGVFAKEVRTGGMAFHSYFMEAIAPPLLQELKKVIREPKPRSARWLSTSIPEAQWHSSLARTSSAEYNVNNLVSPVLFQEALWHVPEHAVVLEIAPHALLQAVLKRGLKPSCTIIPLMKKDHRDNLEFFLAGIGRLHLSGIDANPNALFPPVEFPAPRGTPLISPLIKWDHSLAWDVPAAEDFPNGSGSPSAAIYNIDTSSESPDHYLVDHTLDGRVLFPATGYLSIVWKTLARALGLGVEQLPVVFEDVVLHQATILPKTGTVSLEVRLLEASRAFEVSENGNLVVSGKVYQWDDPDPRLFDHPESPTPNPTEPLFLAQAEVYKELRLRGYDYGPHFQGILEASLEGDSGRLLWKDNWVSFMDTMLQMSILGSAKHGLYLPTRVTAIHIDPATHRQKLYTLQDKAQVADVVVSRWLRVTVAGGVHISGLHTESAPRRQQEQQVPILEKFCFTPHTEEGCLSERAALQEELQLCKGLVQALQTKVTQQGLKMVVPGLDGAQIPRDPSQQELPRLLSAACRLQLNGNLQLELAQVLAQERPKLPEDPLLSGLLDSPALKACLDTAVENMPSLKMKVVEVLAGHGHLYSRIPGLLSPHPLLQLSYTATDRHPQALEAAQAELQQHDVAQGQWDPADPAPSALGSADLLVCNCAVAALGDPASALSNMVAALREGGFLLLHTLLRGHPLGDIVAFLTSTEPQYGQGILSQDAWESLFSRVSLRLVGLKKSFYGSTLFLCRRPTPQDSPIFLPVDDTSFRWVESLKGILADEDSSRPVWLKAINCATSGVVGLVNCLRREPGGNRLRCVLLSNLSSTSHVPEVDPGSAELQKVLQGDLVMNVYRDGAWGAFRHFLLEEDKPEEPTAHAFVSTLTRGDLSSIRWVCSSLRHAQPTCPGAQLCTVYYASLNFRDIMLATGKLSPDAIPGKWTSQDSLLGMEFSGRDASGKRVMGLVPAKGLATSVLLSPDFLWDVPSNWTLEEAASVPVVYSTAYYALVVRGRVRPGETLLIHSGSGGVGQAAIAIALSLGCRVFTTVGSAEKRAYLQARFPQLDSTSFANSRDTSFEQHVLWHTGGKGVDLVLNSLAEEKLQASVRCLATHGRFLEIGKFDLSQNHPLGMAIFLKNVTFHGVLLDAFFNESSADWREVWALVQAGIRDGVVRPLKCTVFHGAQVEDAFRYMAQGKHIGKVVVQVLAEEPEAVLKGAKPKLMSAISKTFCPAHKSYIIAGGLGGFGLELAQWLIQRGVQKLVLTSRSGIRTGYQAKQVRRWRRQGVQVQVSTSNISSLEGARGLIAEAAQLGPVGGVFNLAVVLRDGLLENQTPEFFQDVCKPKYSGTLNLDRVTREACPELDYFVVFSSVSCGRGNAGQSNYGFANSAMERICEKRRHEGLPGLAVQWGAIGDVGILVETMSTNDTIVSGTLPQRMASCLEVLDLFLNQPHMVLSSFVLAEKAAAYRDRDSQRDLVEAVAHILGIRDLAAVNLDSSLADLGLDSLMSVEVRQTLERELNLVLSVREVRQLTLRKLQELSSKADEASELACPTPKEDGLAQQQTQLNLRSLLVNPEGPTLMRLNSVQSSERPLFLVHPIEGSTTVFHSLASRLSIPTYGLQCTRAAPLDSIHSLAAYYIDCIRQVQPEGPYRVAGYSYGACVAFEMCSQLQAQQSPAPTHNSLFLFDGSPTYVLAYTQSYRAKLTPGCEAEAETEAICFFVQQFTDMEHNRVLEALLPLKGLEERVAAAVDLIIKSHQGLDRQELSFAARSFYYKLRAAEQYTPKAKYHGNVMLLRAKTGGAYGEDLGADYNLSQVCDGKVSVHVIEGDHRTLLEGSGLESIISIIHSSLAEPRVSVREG

SMILES	inhibition at 100 µM [%]	IC50, inhibition of human Fatty Acid Synthase
Cc1ccc(C(=O)N2CCC(c3ccc(C#N)cc3)CC2)cc1NC(=O)NC1COc2ccccc2OC1 [Example 163, 1-[5-[4-(4-cyanophenyl)piperidine-1-carbonyl]-2-methyl-phenyl]-3-(2,6-dioxabicyclo[5.4.0]undeca-8,10,12-trien-4-yl)urea]	102	
Cc1ccc(C(=O)N2CCC(c3ccc(F)cc3)CC2)cc1NC(=O)NC1CCNC1 (stereo not shown) [Example 349, 1-[5-[4-(4-fluorophenyl)piperidine-1-carbonyl]-2-methyl-phenyl]-3-pyrrolidin-3-yl-urea]	88.7	
Cc1ccc(C(=O)N2CCC(c3ccc(C#N)cc3)CC2)cc1NC(=O)NCC1COc2ccccc2O1 (stereo not shown) [Example 165, 1-[5-[4-(4-cyanophenyl)piperidine-1-carbonyl]-2-methyl-phenyl]-3-(7,10-dioxabicyclo[4.4.0]deca-2,4,11-trien-8-ylmethyl)urea]	92.4	
Cc1ccc(C(=O)N2CCC(c3ccc(C#N)cc3)CC2)cc1NC(=O)NCCO [Example 90, 1-[5-[4-(4-cyanophenyl)piperidine-1-carbonyl]-2-methyl-phenyl]-3-(2-hydroxyethyl)urea]	93.6	
COc1ccc(NC(=O)NCc2ccccc2)cc1C(=O)N1CCC(c2ccc(C#N)cc2)CC1 [3-benzyl-1-[3-[4-(4-cyanophenyl)piperidine-1-carbonyl]-4-methoxyphenyl]urea]		do not have IC50s in the range of about 0.001 μM to about 30 μM
Cc1ccc(C(=O)N2CCC(c3ccc(S(N)(=O)=O)cc3)CC2)cc1NC(=O)NC(C)C [Example 360, 1-[2-methyl-5-[4-(4-sulfamoylphenyl)piperidine-1-carbonyl]phenyl]-3-propan-2-yl-urea]	97.3	
Cc1ccc(C(=O)N2CCC(c3ccc(C#N)cc3)CC2)cc1NC(=O)N[C@H]1CCNC1 [Example 213, 1-[5-[4-(4-cyanophenyl)piperidine-1-carbonyl]-2-methyl-phenyl]-3-[(3S)-pyrrolidin-3-yl]urea]	88.6	
Cc1ccc(NC(=O)N[C@H]2CC[C@@H](O)CC2)cc1C(=O)N1CCC(c2ccc(C#N)cc2)CC1 [Example 48, 1-[3-[4-(4-cyanophenyl)piperidine-1-carbonyl]-4-methyl-phenyl]-3-cis-(4-hydroxycyclohexyl)urea]	93.7	
CC(C)NC(=O)Nc1ccc([S+](C)[O-])c(C(=O)N2CCC(c3ccc(C#N)cc3)CC2)c1 (stereo not shown) [3-[3-[4-(4-cyanophenyl)piperidine-1-carbonyl]-4-methylsulfinylphenyl]-1-propan-2-ylurea]		do not have IC50s in the range of about 0.001 μM to about 30 μM
Cc1ccc(C(=O)N2CCC(c3ccc(C#N)cc3)CC2)cc1NC(=O)NCCCO [Example 191, 1-[5-[4-(4-cyanophenyl)piperidine-1-carbonyl]-2-methyl-phenyl]-3-(3-hydroxypropyl)urea]	92.2	
Cc1ccc(C(=O)N2CCC(c3ccc(C#N)cc3)CC2)cc1NC(=O)NCCC(=O)Nc1ccccn1 [Example 170, 3-[[5-[4-(4-cyanophenyl)piperidine-1-carbonyl]-2-methyl-phenyl]carbamoylamino]-N-pyridin-2-yl-propanamide]	94.6	
CCNC(=O)Nc1cc(C(=O)N2CCC(c3ccc(C#N)cc3)CC2)c(C)cc1C [Example 410, 3-[5-[4-(4-cyanophenyl)piperidine-1-carbonyl]-2,4-dimethylphenyl]-1-ethylurea]	93.7	
COC(=O)[C@H](CCc1nnn[nH]1)NC(=O)Nc1cc(C(=O)N2CCC(c3ccc(C#N)cc3)CC2)ccc1C [Methyl (2S)-2-[[5-[4-(4-cyanophenyl)piperidine-1-carbonyl]-2-methylphenyl]carbamoylamino]-4-(1H-tetrazol-5-yl)butanoate]		do not have IC50s in the range of about 0.001 μM to about 30 μM
COC(=O)C(C)(C)NC(=O)Nc1cc(C(=O)N2CCC(c3ccc(C#N)cc3)CC2)ccc1C [Methyl 2-[[5-[4-(4-cyanophenyl)piperidine-1-carbonyl]-2-methylphenyl]carbamoylamino]-2-methylpropanoate]		do not have IC50s in the range of about 0.001 μM to about 30 μM
Cc1ccc(C(=O)N2CCC(c3ccc(C#N)cc3)CC2)cc1NC(=O)NCCN1CCNC1=O [Example 135, 1-[5-[4-(4-cyanophenyl)piperidine-1-carbonyl]-2-methyl-phenyl]-3-[2-(2-oxoimidazolidin-1-yl)ethyl]urea]	81.1	
Cc1ccc(C(=O)N2CCC(c3ccc(F)cc3)CC2)cc1NC(=O)NC(C)C [Example 325, 1-[5-[4-(4-fluorophenyl)piperidine-1-carbonyl]-2-methyl-phenyl]-3-propan-2-yl-urea]	72.6	
CCS(=O)(=O)N[C@@H]1CCCC[C@@H]1NC(=O)Nc1cc(C(=O)N2CCC(c3ccc(C#N)cc3)CC2)ccc1C (relative stereo) [Example 309, 3-[5-[4-(4-cyanophenyl)piperidine-1-carbonyl]-2-methyl-phenyl]-1-[(cis)-2-(ethylsulfonylamino)cyclohexyl]urea]	96.7	
Cc1ccc(C(=O)N2CCC(c3ccc(C#N)cc3)CC2)cc1NC(=O)NC1CCC(O)CC1 (stereo not shown) [Example 107, 1-[5-[4-(4-cyanophenyl)piperidine-1-carbonyl]-2-methyl-phenyl]-3-(4-hydroxycyclohexyl)urea]	97.7	
CNCCNC(=O)Nc1cc(C(=O)N2CCC(c3ccc(F)cc3)CC2)ccc1C [Example 400, 1-[5-[4-(4-fluorophenyl)piperidine-1-carbonyl]-2-methylphenyl]-3-(2-methylaminoethyl)urea]	66.7	
Cc1ccc(C(=O)N2CCC(c3ccc(C#N)cc3)CC2)cc1NC(=O)NCc1ccccn1 [Example 52, 1-[5-[4-(4-cyanophenyl)piperidine-1-carbonyl]-2-methyl-phenyl]-3-(pyridin-2-ylmethyl)urea]	94.4	
Cc1ccc(C(=O)N2CCC(c3ccc(C#N)cc3)CC2)cc1NC(=O)N[C@H]1CC[C@H](NC(=O)OC(C)(C)C)C1 [Example 316, tert-butyl N-[(1S,3S)-3-[[5-[4-(4-cyanophenyl)piperidine-1-carbonyl]-2-methyl-phenyl]carbamoylamino]cyclopentyl]carbamate]	99.6	
Cc1ccc(NC(=O)NCc2ccccc2)cc1C(=O)N1CCC(c2ccc(C#N)cc2)CC1 [Example 7, 3-benzyl-1-[3-[4-(4-cyanophenyl)piperidine-1-carbonyl]-4-methyl-phenyl]urea]	79.1	
COC(C)(C)CNC(=O)Nc1cc(C(=O)N2CCC(c3ccc(C#N)cc3)CC2)ccc1C [Example 159, 1-[5-[4-(4-cyanophenyl)piperidine-1-carbonyl]-2-methyl-phenyl]-3-(2-methoxy-2-methyl-propyl)urea]	88	

More lines, main results first:

inhibition at 100 µM [%]	SMILES	IC50, inhibition of human Fatty Acid Synthase
89	Cc1ccc(C(=O)N2CCC(c3ccc(C#N)cc3)CC2)cc1NC(=O)NCC(C)(C)CO [Example 188, 1-[5-[4-(4-cyanophenyl)piperidine-1-carbonyl]-2-methyl-phenyl]-3-(3-hydroxy-2,2-dimethyl-propyl)urea]	
84.9	Cc1ccc(C(=O)N2CCC(c3ccc(C#N)cc3)CC2)cc1NC(=O)NC1CCN(C(=O)OC(C)(C)C)CC1 [Example 208, tert-butyl 4-[[5-[4-(4-cyanophenyl)piperidine-1-carbonyl]-2-methyl-phenyl]carbamoylamino]piperidine-1-carboxylate]	
102	COc1ccccc1OCCNC(=O)Nc1cc(C(=O)N2CCC(c3ccc(C#N)cc3)CC2)ccc1C [Example 83, 1-[5-[4-(4-cyanophenyl)piperidine-1-carbonyl]-2-methyl-phenyl]-3-[2-(2-methoxyphenoxy)ethyl]urea]	
79.6	COc1ccc(C(=O)N2CCC(c3ccc(C#N)cc3)CC2)cc1NC(=O)NC(C)C [Example 6, 1-[5-[4-(4-cyanophenyl)piperidine-1-carbonyl]-2-methoxy-phenyl]-3-propan-2-yl-urea]	
89.5	CCOC(=O)N1CCC(NC(=O)Nc2cc(C(=O)N3CCC(c4ccc(C#N)cc4)CC3)ccc2C)CC1 [Example 132, ethyl 4-[[5-[4-(4-cyanophenyl)piperidine-1-carbonyl]-2-methyl-phenyl]carbamoylamino]piperidine-1-carboxylate]	
88.5	Cc1ccc(C(=O)N2CCC(c3ccc(C#N)cc3)CC2)cc1NC(=O)NC(Cc1ccc(F)cc1)C(=O)O (stereo not shown) [Example 369, 2-[[5-[4-(4-cyanophenyl)piperidine-1-carbonyl]-2-methylphenyl]carbamoylamino]-3-(4-fluorophenyl)propanoic acid]	
86.5	Cc1ccc(C(=O)N2CCC(c3ccc(C#N)cc3)CC2)cc1NC(=O)NCCCNC(=O)N1CCOCC1 [Example 233, N-[3-[[5-[4-(4-cyanophenyl)piperidine-1-carbonyl]-2-methyl-phenyl]carbamoylamino]propyl]morpholine-4-carboxamide]	
96.3	Cc1ccc(C(=O)N2CCC(c3ccc(C#N)cc3)CC2)cc1NC(=O)NCC(=O)NC(C)C [Example 171, 2-[[5-[4-(4-cyanophenyl)piperidine-1-carbonyl]-2-methyl-phenyl]carbamoylamino]-N-propan-2-yl-acetamide]	
84.2	CCC(C)NC(=O)Nc1cc(C(=O)N2CCC(c3ccc(C#N)cc3)CC2)ccc1C (stereo not shown) [Example 226, 1-butan-2-yl-3-[5-[4-(4-cyanophenyl)piperidine-1-carbonyl]-2-methyl-phenyl]urea]	
97.4	CCCS(=O)(=O)NCCNC(=O)Nc1cc(C(=O)N2CCC(c3ccc(C#N)cc3)CC2)ccc1C [Example 174, 3-[5-[4-(4-cyanophenyl)piperidine-1-carbonyl]-2-methyl-phenyl]-1-[2-(propylsulfonylamino)ethyl]urea]	
93.1	Cc1ccc(C(=O)N2CCC(c3ccc(C#N)cc3)CC2)cc1NC(=O)NCc1ccoc1 [Example 89, 1-[5-[4-(4-cyanophenyl)piperidine-1-carbonyl]-2-methyl-phenyl]-3-(3-furylmethyl)urea]	
